Data reported in US10245249B2, “Pharmaceutical compositions comprising nitroxyl donors” (Cardioxyl Pharmaceuticals, Inc., priority 2013, dated 2019).

experiment: HNO production determined via N2O quantification (GC headspace analysis); type: physicochemical; settings: PBS, 37° C., 90 minutes incubation
From the text: Nitrous oxide (N2O) is produced via the dimerization and dehydration of HNO, and is the most common marker for nitroxyl production (Fukuto et al., Chem. Res. Toxicol. 18:790-801 (2005)). […] Using either nitrous oxide gas or Angeli's salt (AS) as a standard, the relative amounts of N2O released from compounds of the disclosure was examined via gas chromatography (GC) headspace analysis.
A procedure for determining the relative amounts of N2O released from compounds of the disclosure is as follows. GC was performed on an Agilent gas chromatograph equipped with a split injector (10:1 splitting), microelectron capture detector, and a HP-MOLSIV 30 m×0.32 mm×25 μm molecular sieve capillary column. Helium was used as the carrier (4 mL/min) gas and nitrogen was used as the make-up (20 mL/min) gas. The injector oven and the detector oven were kept at 200° C. and 325° C., respectively. All nitrous oxide analyses were performed with the column oven held at a constant temperature of 200° C.
All gas injections were made using an automated headspace analyzer. Vial pressurization was 15 psi. The analyzer's sample oven, sampling valve, and transfer line were kept at 40° C., 45° C., and 50° C., respectively. The oven stabilization, vial pressurization, loop fill, loop equilibration, and sample injection times were 1.00 min., 0.20 min., 0.20 min., 0.05 min., and 1.00 min., respectively.
All determinations used a batch of nominal 20 mL headspace vials with volumes pre-measured for sample uniformity (actual vial volume varied by <2.0% relative standard deviation (n=6)). The average vial volume for the batch was determined from six randomly-selected vials by calculating the weight difference between the capped and sealed empty (i.e., air-filled) vial and the capped and sealed deionized water-filled vial using the known density of deionized water, then averaging. Blanks were prepared by sealing and capping two vials then purging each for 20 seconds with a gentle argon stream. Nitroxyl standards were prepared by sealing and capping four vials then purging each for 1 minute with a gentle stream, from a gas cylinder, of a 3000 ppm […].
CXL-1020 (N-hydroxy-2-methanesulfonylbenzene-1-sulfonamide) “standards” were prepared by, in duplicate, accurately weighing 10±0.5 mg of CXL-1020 and adding it to each 4 mL vial. Using an auto pipette, 1 mL of argon-purged anhydrous DMF (Sigma-Aldrich) was added to each 4 mL vial to form a CXL-1020 stock solution for each sample and the vials were capped and shaken and/or sonicated to insure complete dissolution upon visual observation. Using an auto pipette, 20 mL vials were charged with 5 mL of PBS (purged for at least 30 min. with argon prior to use), purged with argon for at least 20 sec., and sealed with a rubber septum. Using a 50 μL syringe, 50 μL of the CXL-1020 stock solution was injected into each 20 mL vial containing the PBS.
Samples were prepared as follows. In duplicate, 18±1 mg of each sample was accurately weighed into each 4 mL vial. Using an auto pipette, 1 mL of argon-purged anhydrous DMF was added to each 4 mL vial to form a sample stock solution for each sample and the vials were capped and shaken and/or sonicated to insure complete sample dissolution upon visual observation. Using an auto pipette, 20 mL vials were charged with 5 mL of PBS (purged for at least 30 min. with argon prior to use), purged with argon for at least 20 sec., and sealed with a rubber septum. The vials were equilibrated for at least 10 min. at 37° C. in a dry block heater. Thereafter, using a 50 μL syringe, 50 μL of a sample stock solution was injected into each 20 mL vial containing the PBS. The vials were then held at 37° C. in the dry block heater for a time period such that the sum of the time spent in the dry block heater plus the time spent in the automated headspace analyzer oven before sample injection equaled the desired incubation time. […]

Compound | Relative N2O Yield (90 minutes incubation) [%]
O=S(=O)(NO)c1cccc2ccoc12 [Compound 4, N-Hydroxy-1-benzofuran-7-sulfonamide] | 64
O=S(=O)(NO)c1cc(CO)ccc1Cl [Compound 10, 2-Chloro-N-hydroxy-5-(hydroxymethyl)benzene-1-sulfonamide] | 91
O=S(=O)(NO)c1cc(Cl)c(Cl)s1 [Compound 12, 4,5-Dichloro-N-hydroxythiophene-2-sulfonamide] | 29
CN1CCOc2cc(S(=O)(=O)NO)ccc21 [Compound 61, N-Hydroxy-4-methyl-3,4-dihydro-2H-1,4-benzoxazine-7-sulfonamide] | 11
O=S(=O)(NO)c1ccc(O)cc1Cl [Compound 62, 2-Chloro-N,4-dihydroxybenzene-1-sulfonamide] | 28
CN(C)C(=O)c1cc(S(=O)(=O)NO)c(Cl)cc1O [Compound 64, 4-Chloro-2-hydroxy-5-(hydroxysulfamoyl)-N,N-dimethylbenzamide] | 36
CN1CCc2cc(Cl)c(S(=O)(=O)NO)cc21 [Compound 65, 5-Chloro-N-hydroxy-1-methyl-2,3-dihydro-1H-indole-6-sulfonamide] | 71
O=S(=O)(NO)c1cc(O)ccc1Cl [Compound 66, 2-Chloro-N,5-dihydroxybenzene-1-sulfonamide] | 80
CN1CCc2cc(Br)c(S(=O)(=O)NO)cc21 [Compound 67, 5-Bromo-N-hydroxy-1-methyl-2,3-dihydro-1H-indole-6-sulfonamide] | 59
COCc1ccc(Cl)c(S(=O)(=O)NO)c1 [Compound 68, 2-Chloro-N-hydroxy-5-(methoxymethyl)benzene-1-sulfonamide] | 86
COC(=O)c1ccc(S(=O)(=O)NO)o1 [Compound 69, Methyl 5-(hydroxysulfamoyl)furan-2-carboxylate] | 100
Cc1cc(S(=O)(=O)NO)c(C)o1 [Compound 70, N-Hydroxy-2,5-dimethylfuran-3-sulfonamide] | 6
CCS(=O)(=O)c1ccccc1S(=O)(=O)NO [Compound 72, 2-(Ethanesulfonyl)-N-hydroxybenzene-1-sulfonamide] | 97
CC(C)S(=O)(=O)c1ccccc1S(=O)(=O)NO [Compound 73, N-Hydroxy-2-(propane-2-sulfonyl)benzene-1-sulfonamide] | 97
CC(=O)N1CCOc2ccc(S(=O)(=O)NO)cc21 [Compound 74, 4-Acetyl-N-hydroxy-3,4-dihydro-2H-1,4-benzoxazine-6-sulfonamide] | 17
COC(=O)c1ccc(S(=O)(=O)NO)n1C [Compound 75, Methyl 5-(hydroxysulfamoyl)-1-methyl-1H-pyrrole-2-carboxylate] | 4
CC(=O)Nc1ncc(S(=O)(=O)NO)s1 [Compound 76, N-[5-(Hydroxysulfamoyl)-1,3-thiazol-2-yl]acetamide] | 76
Cc1oc(C)c(S(=O)(=O)NO)c1C(=O)N1CCOCC1 [Compound 77, N-Hydroxy-2,5-dimethyl-4-(morpholine-4-carbonyl)furan-3-sulfonamide] | 14
CCOC(=O)c1coc(S(=O)(=O)NO)c1 [Compound 78, Ethyl 5-(hydroxysulfamoyl)furan-3-carboxylate] | 86

experiment: In vitro stability (half-life) in phosphate buffered saline (PBS) pH 7.4; type: physicochemical; settings: pH 7.4, 5 μM, PBS pH 7.4, 37° C., read-out: T1/2 (minutes) PBS
Method: Certain compounds from Tables 1 and 2 and CXL-1020 were tested for their stability in phosphate buffered saline (PBS) and plasma. The assay system comprised (i) PBS, or plasma from rat, dog or human (at least 3 donors, male, pooled) at pH 7.4, and (ii) for tests conducted in plasma, an anticoagulant (sodium heparin or sodium citrate). Each test compound (5 μM) was incubated in PBS or plasma at 37° C. on a THERMOMIXER® with shaking. Three samples (n=3) were taken at each of seven sampling time points: 0, 10, 30, 60, 90, 180 and 360 minutes. The samples were immediately combined with 3 volumes (i.e., 3 times the volume of PBS or plasma) of acetonitrile containing 1% formic acid and an internal standard to terminate the reaction. AB SCIEX API 3000 LC-MS/MS analysis of the test compounds was performed without a standard curve. Half-lives (T1/2) of the test compounds were determined from graphs of the percent remaining values using the peak area response ratio. For compounds tested multiple times, the value provided in the Table represents an average of the replicate assays.

half-life at 5 μM [min] | Compound
149 | O=S(=O)(NO)c1cccc2ccoc12 [Compound 4, N-Hydroxy-1-benzofuran-7-sulfonamide]
5 | O=S(=O)(NO)c1cc(CO)ccc1Cl [Compound 10, 2-Chloro-N-hydroxy-5-(hydroxymethyl)benzene-1-sulfonamide]
20 | O=S(=O)(NO)c1cc(Cl)c(Cl)s1 [Compound 12, 4,5-Dichloro-N-hydroxythiophene-2-sulfonamide]
66 | CS(=O)(=O)c1ccc(S(=O)(=O)NO)s1 [Compound 23, N-Hydroxy-5-methanesulfonylthiophene-2-sulfonamide]
745 | Cn1cc(S(=O)(=O)NO)cn1 [Compound 31, N-Hydroxy-1-methyl-1H-pyrazole-4-sulfonamide]
